Assay results as given in patent publication EP0781283B1, “TRIAZOLOPYRIDAZINES PROCESS AND INTERMEDIATES FOR THEIR PREPARATION AND THEIR USE AS MEDICAMENTS” (Takeda Chemical Industries, Ltd., priority 1994, dated 1996).

Assays:
[1] = test system: PAF-induced bronchoconstriction; test: Effect on platelet activating factor (PAF)-induced bronchoconstriction in guinea pig (Konzett-Roessler method); type: in vivo; settings: P.O., one hour before PAF (1 µg/kg i.v.), male Hartley guinea pigs
Procedure: Male Hartley guinea pigs (body weights about 500 g) were used. Bronchoconstriction induced by PAF (1 µg/kg i.v.) in guinea pigs was measured according to the method of Konzett-Roessler. The guinea pig immobilized in the dorsal position, tracheotomy was anesthetized with urethane (1.5 g/kg i.v.) and the trachea was connected through a cannula to a respirator. The side branch of the tracheal cannula was connected to a broncho transducer (Model 7020, Ugobasile). The volume of overflow air was recorded on a rectigraph (Recte-Hori-8S, San-ei Sokki) through the brancho transducer. After guinea pig was given gallamine (1 mg/kg i.v.), the guinea pig was treated by PAF (1 µg/kg). The drug suspended in a 5% solution of gum arabic was administered orally in a dose of 3 mg/kg or 1 mg/kg one hour before PAF treatment.

Guinea Pig Eosinophils = test: Chemotaxis inhibition assay (LTB4-induced chemotaxis of guinea pig eosinophils); type: cell-based; settings: test drug final concentration 10^-5 M, LTB4 10^-8 M, 2 hours; for inhibition at 10 µM: Cavia porcellus, Eosinophil, read-out: Chemotaxis Inhibition Rate (%)
Procedure: Male Hartley guinea pigs (body weights approx. 300 g) were intraperitoneally treated with 2 ml of horse serum (Whittaker Bioproducts) once a week for 8 consecutive weeks. Forty-eight (48) hours after the last treatment, 75 ml of physiological saline was infused into the peritoneal cavity and the lavage was collected and centrifuged at 400 G (1500 rpm) for 5 minutes. The pellet was suspended in 5 ml of Percoll discontinuous density, gradients (specific gravity d=1.07), layered on top of the Percoll suspensions (specific gravity d=1.112:5 ml, d=1.095:10 ml, d=1.090:10 ml, d=1.085:7 ml) and centrifuged (18°C) at 1000 G (2200 rpm) for 30 minutes. The cell layer formed in the boundary zone between the d=1.112 and d=1.095 layers was collected. The collected cell sediment was subjected to hypotonic treatment (suspended in water for 30 seconds) to remove the contaminant erythrocytes.
The sediment was washed three times with Hanks solution containing 10 mM Hepes (Dojin Kagaku) (Hanks-Hepes) and suspended in Hanks-Hepes containing 2% (w/v) human serum albumin (Wako Pure Chemical) (Hanks-Hepes-HSA) at a concentration of 5.56 x 10^6 celles/ml. The eosinophil purity was 92-96% and the viability of eosinophils was not less than 98%.
To a 24-well petri dish, which serves as a lower chamber, 600 µl of LTB4 (final concentration 10^-8 M, Cascade Biochemical Ltd.) in suspension in Hanks-Hepes-HSA solution, was transferred, followed by incubation at 37°C for 30 minutes in carbon dioxide incubator. Separately, 200 µl (5 × 10^6 cells/ml) of eosinophil suspension, previously incubated at 37°C for 15 minutes in a constant-temperature chamber, was added to Chemotaxicell (polycarbonate membrane, pore size 3 µm, thickness 10 µm), which serves as an upper chamber, after the upper chamber was attached to the 24-well petri dish. After 2 hours of reaction in the carbon dioxide incubator, the Chemotaxicell was removed; 60 µl of a 2% (w/v) solution of EDTA in physiological saline was added to the liquid in the lower chamber. After the mixture was ice cooled, the cells migrating into the lower chamber liquid were counted using a blood cell counter (Coulter Counter (trade name)). The test drug, dissolved in dimethyl formamide (DMF), was added to both the upper and lower chambers to a final concentration of 10^-5 M. [formula]

CCc1cc2ncnn2nc1OCC(C)(C)CS(N)(=O)=O [Example 1, 6-(2,2-dimethyl-3-sulfamoyl-l-propoxy)-7-ethyl[1,2,4]triazolo[1,5-b]pyridazine]
% Inhibition of PAF-induced bronchoconstriction ([1]; 1 mg/kg): 70% | Chemotaxis Inhibition Rate (%) (Guinea Pig Eosinophils): 35%

CCCc1cc2ncnn2nc1OCC(C)(C)CS(N)(=O)=O [Example 2, 6-(2,2-dimethyl-3-sulfamoyl-1-propoxy)-7-n-propyl[1,2,4]triazolo[1,5-b]pyridazine]
% Inhibition of PAF-induced bronchoconstriction ([1]; 1 mg/kg): 67% | inhibition at 10 µM (Guinea Pig Eosinophils): 24%

CC(C)c1cc2ncnn2nc1OCC(C)(C)CS(N)(=O)=O [Example 3, 6-(2,2-dimethyl-3-sulfamoyl-1-propoxy)-7-isopropyl[1,2,4]triazolo[1,5-b]pyridazine]
% Inhibition of PAF-induced bronchoconstriction ([1]; 1 mg/kg): 72%

CCC(CC)(COc1nn2ncnc2cc1C(C)C)CS(N)(=O)=O [Example 4, 6-(2,2-diethyl-3-sulfamoyl-1-propoxy)-7-isopropyl[1,2,4]triazolo[1,5-b]pyridazine]
% Inhibition of PAF-induced bronchoconstriction ([1]; 1 mg/kg): 60% | inhibition at 10 µM (Guinea Pig Eosinophils): 23%

CC(C)Cc1cc2ncnn2nc1OCC(C)(C)CS(N)(=O)=O [Example 5, 6-(2,2-dimethyl-3-sulfamoyl-1-propoxy)-7-isobutyl[1,2,4]triazolo[1,5-b]pyridazine]
inhibition at 10 µM (Guinea Pig Eosinophils): 27%

CC(C)(COc1nn2ncnc2cc1C(C)(C)C)CS(N)(=O)=O [Example 6, 6-(2,2-dimethyl-3-sulfamoyl-1-propoxy)-7-t-butyl[1,2,4]triazolo[1.5-b]pyridazine]
% Inhibition of PAF-induced bronchoconstriction ([1]; 1 mg/kg): 43% | % Inhibition of PAF-induced bronchoconstriction ([1]; 3 mg/kg): 83% | Chemotaxis Inhibition Rate (%) (Guinea Pig Eosinophils): 38%

CCCCCCc1cc2ncnn2nc1OCC(C)(C)CS(N)(=O)=O [Example 7, 6-(2,2-dimethyl-3-sulfamoyl-1-propoxy)-7-n-hexyl[1,2,4]triazolo[1,5-b]pyridazine]
inhibition at 10 µM (Guinea Pig Eosinophils): 24%

Cc1cc2ncnn2nc1OCC(C)(C)CS(N)(=O)=O [Reference compound, 6-(2,2-dimethyl-3-sulfamoyl-1-propoxy)-7-methyl[1,2,4]triazolo[1,5-b]pyridazine, reference compound]
% Inhibition of PAF-induced bronchoconstriction ([1]; 3 mg/kg): 25% | inhibition at 10 µM (Guinea Pig Eosinophils): 12%
